Measured values published in US20180244611A1, “Modulators of the Cystic Fibrosis Transmembrane Conductance Regulator Protein and Methods of Use” (AbbVie S.à.r.l., priority 2017, published 2018).

Key:
F508delCFTR [1] = biological target: T1, F508delCFTR (Homo sapiens, UniProt P13569, DEL508-508); assay: Cell Surface Expression-Horse Radish Peroxidase (CSE-HRP) assay, test compound without co-corrector; type: cell-based; details: for Emax: maximum at any tested concentration, normalized to positive control, without co-corrector; for EC50: test compound without co-corrector;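 as to Emax: percent of on-plate 2 µM positive control corrector response over DMSO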
T1 construct: expressed in transfected cells; host or cells: CFBE41o- human lung-derived epithelial cells (CFBE41o-F508delCFTR-HRP), doxycycline-inducible
How it was run: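 Compound without co-corrector was tested at eight 3-fold concentrations, top 20 μM, for 18-24 h at 33° C on doxycycline-induced (0.5 μg/mL, 72 h) CFBE41o- F508delCFTR-HRP cells. After DPBS washes, luminol luminescence gave % activity relative to on-plate positive control minus DMSO; EC50 came from triplicate-plate sigmoidal fitting.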

F508delCFTR [2] = biological target: T1, F508delCFTR; assay: Cell Surface Expression-Horse Radish Peroxidase (CSE-HRP) assay, test compound with co-corrector; type: cell-based; details: with 2 μM co-corrector; for Maximum % activity (with co-corrector): maximum at any tested concentration, normalized to positive control;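 as to Maximum % activity (with co-corrector): percent of 2 µM positive control corrector over DMSO; co-corrector is that same compound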
How it was run: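 Surface-expression read-out: luminol luminescence from an HRP tag in the fourth exofacial loop of F508delCFTR, in doxycycline-induced (0.5 μg/mL, 72 h) CFBE41o- cells. Compound plus 2 μM co-corrector added for 18-24 h at 33° C., 8-point 3-fold series up to 20 μM. EC50 from a sigmoidal fit with variable Hill slope, normalised to positive control, triplicate plates.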

T1 sequence (P13569 with tags, fused parts or gaps DEL508-508): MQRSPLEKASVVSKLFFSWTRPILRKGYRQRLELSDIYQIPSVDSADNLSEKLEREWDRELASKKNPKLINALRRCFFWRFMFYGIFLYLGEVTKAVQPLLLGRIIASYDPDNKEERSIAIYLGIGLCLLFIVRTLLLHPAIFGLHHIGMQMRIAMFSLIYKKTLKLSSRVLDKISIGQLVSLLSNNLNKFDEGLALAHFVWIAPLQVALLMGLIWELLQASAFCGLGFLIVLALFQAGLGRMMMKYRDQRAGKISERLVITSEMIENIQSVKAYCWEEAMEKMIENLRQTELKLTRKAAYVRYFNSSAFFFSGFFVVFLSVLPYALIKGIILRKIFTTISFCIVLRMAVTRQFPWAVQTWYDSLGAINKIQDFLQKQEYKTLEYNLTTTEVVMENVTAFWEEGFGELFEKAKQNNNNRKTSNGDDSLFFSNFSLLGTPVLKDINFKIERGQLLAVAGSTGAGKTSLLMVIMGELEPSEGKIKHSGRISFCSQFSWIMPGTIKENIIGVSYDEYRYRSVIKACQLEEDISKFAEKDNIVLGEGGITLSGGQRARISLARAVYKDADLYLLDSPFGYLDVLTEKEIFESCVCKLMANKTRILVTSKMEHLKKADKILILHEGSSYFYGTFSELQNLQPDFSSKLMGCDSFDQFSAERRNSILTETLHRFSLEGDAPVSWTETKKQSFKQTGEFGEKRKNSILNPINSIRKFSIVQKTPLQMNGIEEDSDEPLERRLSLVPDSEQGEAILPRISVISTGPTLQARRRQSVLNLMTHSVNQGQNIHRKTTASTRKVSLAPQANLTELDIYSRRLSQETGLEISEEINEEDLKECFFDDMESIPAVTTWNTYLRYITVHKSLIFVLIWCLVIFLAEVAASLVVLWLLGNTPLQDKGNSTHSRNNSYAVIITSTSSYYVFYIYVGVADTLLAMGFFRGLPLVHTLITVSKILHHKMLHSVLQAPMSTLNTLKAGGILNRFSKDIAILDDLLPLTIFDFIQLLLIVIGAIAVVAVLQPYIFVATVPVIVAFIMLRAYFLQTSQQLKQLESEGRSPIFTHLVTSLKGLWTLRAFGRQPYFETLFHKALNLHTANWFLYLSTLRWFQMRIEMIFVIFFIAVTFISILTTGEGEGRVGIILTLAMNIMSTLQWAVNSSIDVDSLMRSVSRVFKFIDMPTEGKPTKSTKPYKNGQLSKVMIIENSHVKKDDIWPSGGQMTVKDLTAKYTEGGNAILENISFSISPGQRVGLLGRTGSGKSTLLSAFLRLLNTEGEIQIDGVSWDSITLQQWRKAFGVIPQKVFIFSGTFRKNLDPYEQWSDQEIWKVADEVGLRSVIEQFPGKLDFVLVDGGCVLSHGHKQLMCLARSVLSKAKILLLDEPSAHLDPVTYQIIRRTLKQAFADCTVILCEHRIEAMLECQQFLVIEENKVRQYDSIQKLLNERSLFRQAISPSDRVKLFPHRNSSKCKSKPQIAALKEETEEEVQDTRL

SMILES	Emax (F508delCFTR [1]) [%]	EC50 (F508delCFTR [1]) [µM]	Maximum % activity (with co-corrector) (F508delCFTR [2])	EC50 (F508delCFTR [2]) [µM]
CCC1(C(=O)NS(=O)(=O)c2cccc3ncccc23)CCc2c(Cl)cccc21 (centres unmarked) [Example I-42, 4-chloro-1-ethyl-N-(quinoline-5-sulfonyl)-2,3-dihydro-1H-indene-1-carboxamide]	≥ 150	< 3	+++ (≥350)	< 3
CCC1(C(=O)NS(=O)(=O)c2cccc3sccc23)CCc2c(Cl)cccc21 (centres unmarked) [Example I-43, N-(1-benzothiophene-4-sulfonyl)-4-chloro-1-ethyl-2,3-dihydro-1H-indene-1-carboxamide]	50 to 150	< 3	+++ (≥350)	< 3
COc1ccc(Br)c2c1C(C(=O)NS(=O)(=O)c1cccc3ncccc13)CC2 (centres unmarked) [Example I-44, 4-bromo-7-methoxy-N-(quinoline-5-sulfonyl)-2,3-dihydro-1H-indene-1-carboxamide]	≥ 150	< 3	+++ (≥350)	< 3
COCCOc1ccc(Br)c2c1CCCC2C(=O)NS(=O)(=O)c1cccc2ccccc12 (centres unmarked) [Example I-45, 8-bromo-5-(2-methoxyethoxy)-N-(naphthalene-1-sulfonyl)-1,2,3,4-tetrahydronaphthalene-1-carboxamide]	≥ 150	< 3	+++ (≥350)	< 3
COc1ccc(Br)c2c1[C@@H](C(=O)NS(=O)(=O)c1cccc3ncccc13)CC2 [Example I-46, (1S)-4-bromo-7-methoxy-N-(quinoline-5-sulfonyl)-2,3-dihydro-1H-indene-1-carboxamide]	≥ 150	3 to 10	+++ (≥350)	< 3
COc1ccc(Br)c2c1[C@H](C(=O)NS(=O)(=O)c1cccc3ncccc13)CC2 [Example I-47, (1R)-4-bromo-7-methoxy-N-(quinoline-5-sulfonyl)-2,3-dihydro-1H-indene-1-carboxamide]	≥ 150	< 3	+++ (≥350)	< 3
COc1ccc(Br)c2c1CCC[C@@H]2C(=O)NS(=O)(=O)c1cccc2ccccc12 [Example I-48, (1S)-8-bromo-5-methoxy-N-(naphthalene-1-sulfonyl)-1,2,3,4-tetrahydronaphthalene-1-carboxamide]	≥ 150	3 to 10	+++ (≥350)	< 3
COc1ccc(Br)c2c1CCC[C@H]2C(=O)NS(=O)(=O)c1cccc2ccccc12 [Example I-49, (1R)-8-bromo-5-methoxy-N-(naphthalene-1-sulfonyl)-1,2,3,4-tetrahydronaphthalene-1-carboxamide]	≥ 150	< 3	+++ (≥350)	< 3
COc1ccc(Br)c2c1C(C(=O)NS(=O)(=O)c1cccc3ncccc13)CCC2 (centres unmarked) [Example I-50, 5-bromo-8-methoxy-N-(quinoline-5-sulfonyl)-1,2,3,4-tetrahydronaphthalene-1-carboxamide]	≥ 150	< 3	+++ (≥350)	< 3
COc1ccc(Br)c2c1[C@@H](C(=O)NS(=O)(=O)c1cccc3ccccc13)CC2 [Example I-51, (1S)-4-bromo-7-methoxy-N-(naphthalene-1-sulfonyl)-2,3-dihydro-1H-indene-1-carboxamide]	50 to 150	3 to 10	++ (≥150 and <350)	3 to 10
COc1ccc(Br)c2c1[C@H](C(=O)NS(=O)(=O)c1cccc3ccccc13)CC2 [Example I-52, (1R)-4-bromo-7-methoxy-N-(naphthalene-1-sulfonyl)-2,3-dihydro-1H-indene-1-carboxamide]	≥ 150	< 3	+++ (≥350)	< 3

Further lines, results first:

Emax (F508delCFTR [1]) [%]	EC50 (F508delCFTR [1]) [µM]	Maximum % activity (with co-corrector) (F508delCFTR [2])	EC50 (F508delCFTR [2]) [µM]	SMILES
≥ 150	< 3	+++ (≥350)	< 3	CCOc1ccc(Br)c2c1C(C(=O)NS(=O)(=O)c1cccc3ccccc13)CC2 (centres unmarked) [Example I-53, 4-bromo-7-ethoxy-N-(naphthalene-1-sulfonyl)-2,3-dihydro-1H-indene-1-carboxamide]
≥ 150	3 to 10	+++ (≥350)	< 3	CC(C)Oc1ccc(Br)c2c1C(C(=O)NS(=O)(=O)c1cccc3ccccc13)CC2 (centres unmarked) [Example I-54]
≥ 150	< 3	+++ (≥350)	< 3	O=C(NS(=O)(=O)c1cccc2ccccc12)C1CCc2c(Br)ccc(OCC3CC3)c21 (centres unmarked) [Example I-55, 4-bromo-7-(cyclopropylmethoxy)-N-(naphthalene-1-sulfonyl)-2,3-dihydro-1H-indene-1-carboxamide]
≥ 150	< 3	+++ (≥350)	< 3	COc1ccc(Br)c2c1CCCC2C(=O)NS(=O)(=O)c1cccc2ncccc12 (centres unmarked) [Example I-56, 8-bromo-5-methoxy-N-(quinoline-5-sulfonyl)-1,2,3,4-tetrahydronaphthalene-1-carboxamide]
≥ 150	< 3	+++ (≥350)	< 3	COc1ccc(-c2ccc(C)cc2)c2c1CCCC2C(=O)NS(=O)(=O)c1cccc2ccccc12 (centres unmarked) [Example I-57, 5-methoxy-8-(4-methylphenyl)-N-(naphthalene-1-sulfonyl)-1,2,3,4-tetrahydronaphthalene-1-carboxamide]
≥ 150	< 3	+++ (≥350)	< 3	O=C(NS(=O)(=O)c1cccc2ccccc12)C1CCc2c(Br)ccc(OC(F)F)c21 (centres unmarked) [Example I-58, 4-bromo-7-(difluoromethoxy)-N-(naphthalene-1-sulfonyl)-2,3-dihydro-1H-indene-1-carboxamide]
≥ 150	3 to 10	+++ (≥350)	< 3	COc1ccc(Cl)c2c1C(C(=O)NS(=O)(=O)c1cccc3ccccc13)CC2 (centres unmarked) [Example I-59, 4-chloro-7-methoxy-N-(naphthalene-1-sulfonyl)-2,3-dihydro-1H-indene-1-carboxamide]
≥ 150	< 3	+++ (≥350)	< 3	COc1ccc(C2CCC2)c2c1CCC[C@@H]2C(=O)NS(=O)(=O)c1cccc2ccccc12 [Example I-60, (1S)-8-cyclobutyl-5-methoxy-N-(naphthalene-1-sulfonyl)-1,2,3,4-tetrahydronaphthalene-1-carboxamide]
≥ 150	< 3	+++ (≥350)	< 3	COc1ccc(C2CCC2)c2c1CCC[C@H]2C(=O)NS(=O)(=O)c1cccc2ccccc12 [Example I-61, (1R)-8-cyclobutyl-5-methoxy-N-(naphthalene-1-sulfonyl)-1,2,3,4-tetrahydronaphthalene-1-carboxamide]
≥ 150	< 3	+++ (≥350)	< 3	CC[C@]1(C(=O)NS(=O)(=O)c2cccc3ccccc23)CCCc2cccc(Cl)c21 [Example I-64, (1S)-8-chloro-1-ethyl-N-(naphthalene-1-sulfonyl)-1,2,3,4-tetrahydronaphthalene-1-carboxamide]
≥ 150	< 3	+++ (≥350)	< 3	CC[C@@]1(C(=O)NS(=O)(=O)c2cccc3ccccc23)CCCc2cccc(Cl)c21 [Example I-65, (1R)-8-chloro-1-ethyl-N-(naphthalene-1-sulfonyl)-1,2,3,4-tetrahydronaphthalene-1-carboxamide]
≥ 150	< 3	+++ (≥350)	< 3	CCC1(C(=O)NS(=O)(=O)c2cccc3ccn(C)c23)CCc2c(Cl)cccc21 (centres unmarked) [Example I-66, 4-chloro-1-ethyl-N-(1-methyl-1H-indole-7-sulfonyl)-2,3-dihydro-1H-indene-1-carboxamide]
≥ 150	< 3	+++ (≥350)	< 3	COc1ccc(CC(C)C)c2c1CCCC2C(=O)NS(=O)(=O)c1cccc2ccccc12 (centres unmarked) [Example I-67, 5-methoxy-8-(2-methylpropyl)-N-(naphthalene-1-sulfonyl)-1,2,3,4-tetrahydronaphthalene-1-carboxamide]
≥ 150	< 3	+++ (≥350)	< 3	COc1ccc(CC(C)C)c2c1C(C(=O)NS(=O)(=O)c1cccc3ccccc13)CCC2 (centres unmarked) [Example I-68, 8-methoxy-5-(2-methylpropyl)-N-(naphthalene-1-sulfonyl)-1,2,3,4-tetrahydronaphthalene-1-carboxamide]
≥ 150	< 3	+++ (≥350)	< 3	COc1ccc(C2CCC2)c2c1C(C(=O)NS(=O)(=O)c1cccc3ccccc13)CCC2 (centres unmarked) [Example I-69, 5-cyclobutyl-8-methoxy-N-(naphthalene-1-sulfonyl)-1,2,3,4-tetrahydronaphthalene-1-carboxamide]
